Test results from patent US4401660A, “Ester derivatives of 5-O-mycaminosyl tylonolide and method of using same” (Eli Lilly and Company, priority 1981, dated 1983).
Read-outs that look alike come from different tables or passages of the source.

Legend:
[1] = system: Pasteurella multocida 40G; experiment: MIC, broth-dilution microtiter test (Table III); format: cell-based; set-up: unit not given here
Description: (§1) The MIC's in Table II were determined by standard agar-dilution assays. The MIC's in Table III were obtained using a conventional broth-dilution microtiter test.

[2] = system: Pasteurella haemolytica 22C; experiment: MIC, broth-dilution microtiter test (Table III); format: cell-based; set-up: unit not given here
Description: as §1

Mycoplasma synoviae = experiment: MIC, broth-dilution microtiter test (Table III); format: cell-based; set-up: unit not given here
Description: as §1

[3] = system: Pasteurella multocida 22A; experiment: MIC, broth-dilution microtiter test (Table III); format: cell-based; set-up: unit not given here
Description: as §1

[4] = system: Pasteurella haemolytica 41D; experiment: MIC, broth-dilution microtiter test (Table III); format: cell-based; set-up: unit not given here
Description: as §1

Streptococcus sp. 80 = experiment: MIC, broth-dilution microtiter test (Table III); format: cell-based; set-up: unit not given here
Description: as §1

Staphylococcus aureus = experiment: MIC, broth-dilution microtiter test (Table III); format: cell-based; set-up: unit not given here
Description: as §1

[5] = system: Pasteurella haemolytica 23C; experiment: MIC, broth-dilution microtiter test (Table III); format: cell-based; set-up: unit not given here
Description: as §1

[6] = system: Pasteurella multocida 60A; experiment: MIC, broth-dilution microtiter test (Table III); format: cell-based; set-up: unit not given here; settings: avian isolate
Description: as §1

Mycoplasma hyorhinis = experiment: MIC, broth-dilution microtiter test (Table III); format: cell-based; set-up: unit not given here
Description: as §1

[7] = system: Pasteurella multocida 68C; experiment: MIC, broth-dilution microtiter test (Table III); format: cell-based; set-up: unit not given here
Description: as §1

Mycoplasma gallisepticum = experiment: MIC, broth-dilution microtiter test (Table III); format: cell-based; set-up: unit not given here
Description: as §1

[8] = system: Pasteurella multocida 17E; experiment: MIC, broth-dilution microtiter test (Table III); format: cell-based; set-up: unit not given here; settings: bovine isolate
Description: as §1

[9] = system: Streptococcus pyogenes C203; experiment: ED50 in mice with experimental infections (Table IV); format: in vivo; settings: Streptococcus pyogenes, doses given 1 and 4 hours postinfection
Summary of the method: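 Read-out is ED50, the mg/kg dose protecting half of infected mice; values refer to each of two doses, given 1 and 4 hours after infection.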

[10] = system: Haemophilus influenzae Holt; experiment: MIC, standard agar-dilution assay (Table II); format: cell-based; set-up: unit not given here; settings: ampicillin-sensitive strain
Description: as §1

[11] = system: Staphylococcus aureus X1.1; experiment: MIC, standard agar-dilution assay (Table II); format: cell-based; set-up: unit not given here
Description: as §1

[12] = system: Staphylococcus aureus V41; experiment: MIC, standard agar-dilution assay (Table II); format: cell-based; set-up: unit not given here; settings: Staphylococcus aureus V41, penicillin-resistant strain
Description: as §1

[13] = system: Staphylococcus epidermidis EPI1; experiment: MIC, standard agar-dilution assay (Table II); format: cell-based; set-up: unit not given here
Description: as §1

[14] = system: Staphylococcus epidermidis EPI2; experiment: MIC, standard agar-dilution assay (Table II); format: cell-based; set-up: unit not given here
Description: as §1

[15] = system: Staphylococcus aureus S13E; experiment: MIC, standard agar-dilution assay (Table II); format: cell-based; set-up: unit not given here
Description: as §1

[16] = system: Streptococcus Group D X66; experiment: MIC, standard agar-dilution assay (Table II); format: cell-based; set-up: unit not given here
Description: as §1

[17] = system: Staphylococcus aureus X400; experiment: MIC, standard agar-dilution assay (Table II); format: cell-based; set-up: unit not given here; settings: Staphylococcus aureus X400, methicillin-resistant strain
Description: as §1

[18] = system: Streptococcus pneumoniae Park I; experiment: MIC, standard agar-dilution assay (Table II); format: cell-based; set-up: unit not given here
Description: as §1

[19] = system: Streptococcus Group D 9960; experiment: MIC, standard agar-dilution assay (Table II); format: cell-based; set-up: unit not given here
Description: as §1

[20] = system: Streptococcus pyogenes C203; experiment: MIC, standard agar-dilution assay (Table II); format: cell-based; set-up: unit not given here
Description: as §1

[21] = system: Haemophilus influenzae R252; experiment: MIC, standard agar-dilution assay (Table II); format: cell-based; set-up: unit not given here; settings: Haemophilus influenzae R252, ampicillin-resistant strain
Description: as §1

Pasteurella multocida = experiment: Treatment of Pasteurella infections in chicks (Table V); format: in vivo, one-day-old chicks; settings: Pasteurella multocida, sc, 4 h; 30 mg/kg by subcutaneous injection one and four hours post challenge; read-out: Deaths in Treated Chicks/Number Treated (converted)
Summary of the method: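 Dosing was 30 mg/kg by subcutaneous injection, one and four hours after challenge. Day-old chicks received 0.1 ml of a 10^-3 dilution of a 20-hour tryptose broth culture of avian P. multocida subcutaneously. Nonmedicated infected chicks served as controls, ten per group.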

[22] = C203, oral, read-out: ED50, Oral
[23] = C203, sc, subcutaneous, read-out: ED50, Subcutaneous

SMILES	minimal inhibitory concentration (MIC) [1]	minimal inhibitory concentration (MIC) [2]	minimal inhibitory concentration (MIC) (Mycoplasma synoviae)	minimal inhibitory concentration (MIC) [3]	minimal inhibitory concentration (MIC) [4]	minimal inhibitory concentration (MIC) (Streptococcus sp. 80)	minimal inhibitory concentration (MIC) (Staphylococcus aureus)	minimal inhibitory concentration (MIC) [5]	minimal inhibitory concentration (MIC) [6]	minimal inhibitory concentration (MIC) (Mycoplasma hyorhinis)	minimal inhibitory concentration (MIC) [7]	minimal inhibitory concentration (MIC) (Mycoplasma gallisepticum)	minimal inhibitory concentration (MIC) [8]	ED50 [9, 22] [mg/kg]	ED50 [9, 23] [mg/kg]	minimal inhibitory concentration (MIC) [10]	minimal inhibitory concentration (MIC) [11]	minimal inhibitory concentration (MIC) [12]	minimal inhibitory concentration (MIC) [13]	minimal inhibitory concentration (MIC) [14]	further results
CCC1OC(=O)CC(O)C(C)C(OC2OC(C)C(OC(=O)CC(C)C)C(N(C)C)C2OC(C)=O)C(CC=O)CC(C)C(=O)C=CC(C)=CC1CO (stereo not shown) [Compound 49, 2'-O-Acetyl-4'-O-isovaleryl-OMT]	3.12	12.5	0.78	6.25	12.5	0.39	3.12	12.5	3.12	6.25	25	1.56	3.12	> 100	> 30	1	1	2	1	2	minimal inhibitory concentration (MIC) [15]: 2; minimal inhibitory concentration (MIC) [16]: 1; minimal inhibitory concentration (MIC) [17]: 4; minimal inhibitory concentration (MIC) [18]: 0.125; minimal inhibitory concentration (MIC) [19]: 1; minimal inhibitory concentration (MIC) [20]: 0.25; minimal inhibitory concentration (MIC) [21]: 1; mortality at 30 mg/kg (Pasteurella multocida): 100%
CCC1OC(=O)CC(O)C(C)C(OC2OC(C)C(O)C(N(C)C)C2O)C(CC=O)CC(C)C(=O)C=CC(C)=CC1COC(C)=O (stereo not shown) [Compound 13, 23-O-Acetyl-OMT]	3.12	3.12	0.097	1.56	6.25	0.195	0.39	3.12	1.56	0.78	1.56	0.05	1.56	109	3.3	1	0.25	0.25	0.25	0.25	minimal inhibitory concentration (MIC) [15]: 0.25; minimal inhibitory concentration (MIC) [16]: 0.25; minimal inhibitory concentration (MIC) [17]: 0.5; minimal inhibitory concentration (MIC) [18]: 0.125; minimal inhibitory concentration (MIC) [19]: 0.5; minimal inhibitory concentration (MIC) [20]: 0.125; minimal inhibitory concentration (MIC) [21]: 4; mortality at 30 mg/kg (Pasteurella multocida): 0%
CCC1OC(=O)CC(O)C(C)C(OC2OC(C)C(OC(C)=O)C(N(C)C)C2OC(C)=O)C(CC=O)CC(C)C(=O)C=CC(C)=CC1CO (stereo not shown) [Compound 3, 2',4'-Di-O-acetyl-OMT]	6.25	12.5	0.195	3.12	6.25	< 0.78	1.56	6.25	3.12	3.12	1.56	0.78	3.12	139	> 15	2	2	4	1	1	minimal inhibitory concentration (MIC) [15]: 2; minimal inhibitory concentration (MIC) [16]: 2; minimal inhibitory concentration (MIC) [17]: 4; minimal inhibitory concentration (MIC) [18]: 0.25; minimal inhibitory concentration (MIC) [19]: 2; minimal inhibitory concentration (MIC) [20]: 0.5; minimal inhibitory concentration (MIC) [21]: 4; mortality at 30 mg/kg (Pasteurella multocida): 0%
CCC1OC(=O)CC(O)C(C)C(OC2OC(C)C(O)C(N(C)C)C2O)C(CC=O)CC(C)C(=O)C=CC(C)=CC1COS(=O)(=O)c1ccc(C)cc1 (stereo not shown) [Compound 46]	6.25	3.12	0.097	6.25	3.12	0.097	0.195	3.12	1.56	0.78	3.12	0.05	3.12	146	15	1	0.25	0.25	0.25	0.25	minimal inhibitory concentration (MIC) [15]: 0.25; minimal inhibitory concentration (MIC) [16]: 0.25; minimal inhibitory concentration (MIC) [17]: 0.25; minimal inhibitory concentration (MIC) [18]: 0.03; minimal inhibitory concentration (MIC) [19]: 0.25; minimal inhibitory concentration (MIC) [20]: 0.125; minimal inhibitory concentration (MIC) [21]: 1; mortality at 30 mg/kg (Pasteurella multocida): 80%
